Entries after “also recorded” stand apart in the source; their conditions may differ. Where a name gives a salt, the structure may show the parent alone.
What was measured:
THP-1 cells [1] = assay: Chase assay of Aβ catabolism, Simoa immunoassays of intracellular Aβ fragments (Example 1); type: cell-based; conditions: TPA-differentiated THP-1; 100 ng/ml Abeta40 2 h, 4 hours chase; 100 nM Bafilomycin, 100 nM Rapamycin, 100 μM Neprilysin inhibitor, 200 nM BACE inhibitor, 1 μM IDE inhibitor; vs 4 hour chase
Description: To adjust for inter-day variations in measurements for the different experiments, values were normalized using the baseline condition as the reference for each day of experiments using the following formula: [(biomarker value/mean biomarker value)[…])].
Statistical analyses were carried out with one-way ANOVA models. If a significant (p<0.05) omnibus (F-test) ANOVA was shown, planned comparisons according to our hypotheses were carried out. This included a main comparison between the reference condition and experimental conditions (endolysosomal inhibitors and autophagosome activators). The Figures thus indicate within each bar the percentage change, and associated statistical significance (p-value) or lack thereof (n.s.), as compared to the reference condition (100%) (i.e. the main comparison). For some experiments (FIGS. 4, 5 and 7), additional comparisons between experimental conditions were conducted in accordance with hypotheses. Significant between-group differences for these comparisons are shown with horizontal bars with the associated statistical significance (p-value), or lack thereof (n.s.).
Aβ catabolism and detoxification, and the effect of example inhibitors and activators thereon, was measured using antibodies specific for intracellular Aβ mid-domain peptides, i.e. catabolism products. In particular, inhibition of endolysosomal activity is expected to reduce degradation and increase concentrations of species, here studied with Bafilomycin, which blocks V-ATPase and inhibits acidification of endolysosomes, thereby inhibiting endolysosomal enzyme activities. Addition of inhibitors of endolysosomal enzymes Neprilysin (Saido 2013) and Insulin Degradation Enzymes are expected to have similar effects (Jha, Jha et al. 2015, Sikanyika, Parkington et al. 2019), whereas BACE1 is involved both in Aβ generation and […] (Vassar, Kovacs et al. 2009, Liebsch, Kulic et al. 2019). Enhancing macroautophagy using Rapamycin is also expected to increase Aβ catabolism (FIG. 3; Spilman, Podlutskaya et al. 2010, Malik, Maddison et al. 2019)
Immunoassays were developed on the single molecule array (Simoa) platform (Quanterix, US) using proprietary antibodies directed against different epitopes of the amyloid β protein (Shown in FIG. 1; SEQ ID NOs: 3-5). The Aβx-40/42 assay used a 40-42 end-specific sheep monoclonal AB.4D7 (Bioventix plc, UK) as the capture antibody, and a sheep monoclonal AB.2A9 (Bioventix plc, UK) with a mid-domain epitope (SEQ ID NO: 7) as the detection antibody. The 40-42 end-specific antibody was raised against the epitope shown in SEQ ID NO: 5, and binds the C-terminal of both Aβ1-42 (SEQ ID NO: 1) and Aβ1-40 (SEQ ID NO: 2). The Aβ20-x assay used the same AB.4D7 antibody as the capture antibody, and the highly specific 20-cut point sheep monoclonal antibody, ABNT.2B8 (Bioventix plc, UK) as the detection antibody. For the Aβx-34 assay, AB.2A9 was used as the capture antibody and an anti-complex antibody, BVX.33420/H3 (Bioventix plc, UK), which preferentially binds a fragment having the C-terminal of SEQ ID NO: 6, was used as the detection antibody, ensuring mid-domain x-34 specificity.
Chase Assays THP-1 cells were differentiated toward macrophages by a 48 hour treatment with 100 nM TPA (12-O-tetradecanoylphorbol-13-acetate). Media was replaced with fresh medium with or without modulators of the autophagic/endolysosomal system: 100 nM Bafilomycin, 100 nM Rapamycin, 100 μM Neprilysin inhibitor, 200 nM BACE inhibitor, or 1 μM IDE inhibitor, or a triple combination of the enzyme inhibitors Neprilysin inhibitor, BACE inhibitor and IDE inhibitor. The cells were incubated for 1 hour before adding 100 ng/ml Abeta40 to the cells. Cells were further incubated for 2 hours before removing Abeta40 and a continued 4 hours chase with or without the respective modulators. Cells were washed before adding lysis buffer. Lysates were kept at −80° C. until analysis.

THP-1 cells [2] = assay: Chase assay with proposed AD interventions, Mesoscale immunoassay (Example 2); type: cell-based; conditions: 16 hours DHA (100 μM) and/or NS1738 (10 μM); Aβ1-40 500 ng/ml; reference Aβ40 4 hour chase
Description: An immunoassay was set up on a Mesoscale platform using the same antibodies as, and a similar method to, Example 1. Cells were incubated overnight (16 hours) with DHA (100 μM) and/or NS1738 (10 μM). Aβ1-40 was added at a concentration of 500 ng/ml, and removed from the media before the 4 hour chase. DHA and NS1738 were removed from the media during the 4 hour chase.

THP-1 cells [3] = assay: Clearance assay on a background of LPS inflammatory activation, Mesoscale immunoassay (Example 4); type: cell-based; conditions: with LPS, 16 h; Aβ1-40 2 h; 4 h chase; reference LPS+Aβ40 4 hour chase
Description: The immunoassay was set up on a Mesoscale platform. THP-1 cells were differentiated towards phagocytic monocytes/macrophages during a 48 h incubation with 12-O-tetra-decanoylphorbol-13-acetate (TPA). Media were replaced with fresh medium containing LPS alone or LPS together with DHA or NS1738 or combination of DHA and NS1738, for an overnight incubation (16 h). The marker protein (Aβ1-40) was added to the cells for an additional 2 h incubation. Media were replaced with fresh medium without any additives and the cells were further incubated for a 4 h chase period. The cells were kept cold, media removed, and the cells washed with cold PBS. Lysis buffer containing protease inhibitors and sodium dodecyl sulfate (SDS) was added to the cells. After lysis, the cells were scraped and transferred to tubes and kept in a −80° C. freezer. Lysates were sonicated and treated with DNase before analysis on the degradation assays.

[4] = target: Aβ20-34, mid-domain fragment of Aβ1-42 and Aβ1-40; assay: monocyte lysate pool + 12 pg/ml Aβ20-34 pre-incubated with the antibody, then Simoa Aβx-34 immunoassay
[5] = target: Aβ20-34, mid-domain fragment of Aβ1-42 and Aβ1-40; assay: monocyte lysate pool + 12 pg/ml Aβ20-34 pre-incubated with the antibody, then Simoa Aβx-34 immunoassay (untreated 13.8 pg/ml)
[6] = tested on: cells in an innate immune model system; conditions: DHA treatment of cells in an innate immune model system; cited from earlier work

Molecule | intracellular Aβ20-x level (THP-1 cells [1]) | intracellular Aβx-34 level (THP-1 cells [1]) | intracellular Aβx-40/42 level (THP-1 cells [1]) | also measured
CC(C)C[C@H](NP(=O)(O)O[C@@H]1O[C@@H](C)[C@H](O)[C@@H](O)[C@H]1O)C(=O)N[C@@H](Cc1c[nH]c2ccccc12)C(=O)O [Neprilysin inhibitor, Phosphoramidon disodium salt] | increases | unchanged | increases | 
NC1=N[C@@]2(c3cc(NC(=O)c4ccc(F)cn4)ccc3F)COC[C@H]2CS1 [BACE inhibitor, LY2886721] | increases | no effect | no effect | 
NCCCC[C@@H]1NC(=O)/C=C/C(=O)N[C@H](C(N)=O)CCCCNC(=O)[C@@H](Cc2ccc(C(=O)c3ccccc3)cc2)NC(=O)[C@H](CC2CCCCC2)NC1=O [IDE inhibitor, 6bK] | increases | no effect | no effect | 
O=C(Nc1cc(Cl)ccc1O)Nc1cc(C(F)(F)F)ccc1Cl [NS1738] |  |  |  | intracellular Aβx-34 level (THP-1 cells [2]): reduces the amount; also recorded: decreased; intracellular Aβ20-x level (THP-1 cells [3]): continue to have an effect; intracellular Aβx-34 level (THP-1 cells [3]): continue to have an effect; intracellular Aβx-40 level (THP-1 cells [3]): continue to have an effect
CO/C1=C\C(C)=C\[C@@H](C)[C@@H](O)[C@@H](C)C/C(C)=C/C=C/[C@H](OC)[C@@H]([C@@H](C)[C@@H](O)[C@H](C)[C@@]2(O)C[C@@H](O)[C@H](C)[C@@H](C(C)C)O2)OC1=O [Bafilomycin, Bafilomycin A1] | significantly increases | non-significantly increases | significantly increases | 
unspecific antibody LB509 |  |  |  | Percent of untreated [4]: 80%; concentration left after depletion [5]: 11.1 pg/mL
CC/C=C\C/C=C\C/C=C\C/C=C\C/C=C\C/C=C\CCC(=O)O [DHA, (4Z, 7Z, 10Z, 13Z, 16Z, 19Z)-4,7, 10, 13, 16, 19-docosahexaenoic acid] |  |  |  | intracellular Aβx-34 level (THP-1 cells [2]): reduces the amount; also recorded: decreased; intracellular Aβ20-x level (THP-1 cells [3]): continue to have an effect; intracellular Aβx-34 level (THP-1 cells [3]): continue to have an effect; intracellular Aβx-40 level (THP-1 cells [3]): continue to have an effect; Aβ1-42 phagocytosis and degradation [6]: increase

— patent publication US20240168011A1, “CLEARANCE ASSAY” (Akershus Universitetssykehus HF, priority 2021, published 2024)
